Measurements reported in patent publication US9302999B2, “Substituted triazoles as herbicides” (E. I. DU PONT DE NEMOURS AND COMPANY, priority 2012, dated 2016).

How the values were obtained:
Type in all cases: in vivo
[1] = system: bromegrass, downy (downy bromegrass, Bromus tectorum); experiment: Test D pre-/postemergence: bromegrass, downy
Outline: (§1)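 Applied as a non-phytotoxic solvent formulation with surfactant, compounds were tested preemergence in silt loam and postemergence on seedlings 2 to 18 cm high in peat-vermiculite medium. Evaluation was visual, 0 meaning no effect and 100 complete control, at 14 to 21 days.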

[2] = system: mustard, wild (wild mustard, Sinapis arvensis); experiment: Test D pre-/postemergence: mustard, wild; conditions: Preemergence
Outline: as §1

[3] = system: blackgrass (Alopecurus myosuroides); experiment: Test D pre-/postemergence: blackgrass
Outline: as §1

[4] = system: oilseed rape (Brassica napus); experiment: Test D pre-/postemergence: oilseed rape
Outline: as §1

soybean (Glycine max) = experiment: Test C pre-/postemergence: soybean
Outline: (§2)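 Visual injury scored 0–100 (100 = complete control) against untreated controls after 13–15 greenhouse days. Surfactant-containing solvent formulations applied either to soil after sowing (loam/sand) or over 1- to 4-leaf plants, 2–18 cm tall.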

[5] = system: galium (catchweed bedstraw, Galium aparine); experiment: Test D pre-/postemergence: galium
Outline: as §1

kochia (Kochia scoparia) = experiment: Test D pre-/postemergence: kochia
Outline: as §1

[6] = system: nightshade (eastern black nightshade, Solanum ptycanthum); experiment: Test C pre-/postemergence: nightshade; conditions: Preemergence
Outline: as §2

[7] = system: foxtail, giant (giant foxtail, Setaria faberii); experiment: Test C pre-/postemergence: foxtail, giant
Outline: as §2

[8] = Postemergence, 31 g ai/ha, scale 0 to 100 (0 no effect, 100 complete control)
[9] = Postemergence, 62 g ai/ha, scale 0 to 100 (0 no effect, 100 complete control)
[10] = Postemergence, 125 g ai/ha, scale 0 to 100, 0 no effect, 100 complete control
[11] = Postemergence, 250 g ai/ha, scale 0 to 100 (0 no effect, 100 complete control)
[12] = Postemergence, 16 g ai/ha, scale 0 to 100
[13] = Preemergence, 16 g ai/ha, scale 0 to 100 (0 no effect, 100 complete control)
[14] = Preemergence, 31 g ai/ha, scale 0 to 100 (0 no effect, 100 complete control)
[15] = Preemergence, 62 g ai/ha, scale 0 to 100
[16] = Preemergence, 125 g ai/ha, scale 0 to 100
[17] = Preemergence, 250 g ai/ha, scale 0 to 100
[18] = Postemergence, 250 g ai/ha, scale 0 to 100
[19] = Preemergence, 31 g ai/ha, scale of 0 to 100, 0 is no effect, 100 is complete control
[20] = Preemergence, 62 g ai/ha, scale of 0 to 100, 0 is no effect, 100 is complete control
[21] = Preemergence, 125 g ai/ha, scale 0 to 100, 0 no effect, 100 complete control
[22] = Preemergence, 250 g ai/ha, scale 0 to 100, 0 no effect, 100 complete control

Cc1nn(-c2ccc(F)cc2)nc1Oc1ccnc(C(F)(F)F)c1 [Compound 129, 4-[[2-(4-fluorophenyl)-5-methyl-2H-1,2,3-triazol-4-yl]oxy]-2-(trifluoromethyl)pyridine] was tested, and the “Plant response rating: Bromegrass, Downy” value [1, 8] was 10, the “Plant response rating: Bromegrass, Downy” value [1, 9] was 20 and the “Plant response rating: Bromegrass, Downy” value [1, 10] was 30. For the same compound, the “Plant response rating: Bromegrass, Downy” value [1, 11] was 30, the “Plant response rating, Bromegrass, Downy” value [1, 12] was 10 and the “Plant response rating, Bromegrass, Downy” value [1, 13] was 0. The “Plant response rating, Bromegrass, Downy” value [1, 14] was 10, the “Plant response rating, Bromegrass, Downy” value [1, 15] was 10 and the “Plant response rating, Bromegrass, Downy” value [1, 16] was 20. The “Plant response rating, Bromegrass, Downy” value [1, 17] was 30, the “Plant response rating, Mustard, Wild” value ([2]; 16 g ai/ha, scale 0 to 100 (0 no effect, 100 complete control)) was 0 and the “Plant response rating, Mustard, Wild” value ([2]; 31 g ai/ha, scale 0 to 100 (0 no effect, 100 complete control)) was 5. The “Plant response rating, Mustard, Wild” value ([2]; 62 g ai/ha, scale 0 to 100) was 40, the “Plant response rating, Mustard, Wild” value ([2]; 125 g ai/ha, scale 0 to 100) was 80 and the “Plant response rating, Mustard, Wild” value ([2]; 250 g ai/ha, scale 0 to 100) was 100. The “Plant response rating: Blackgrass” value [3, 8] was 10, the “Plant response rating: Blackgrass” value [3, 9] was 10 and the “Plant response rating: Blackgrass” value [3, 10] was 50. For the same compound, the “Plant response rating: Blackgrass” value [3, 11] was 70, the “Plant response rating, Blackgrass” value [3, 12] was 5 and the “Plant response rating, Blackgrass” value [3, 13] was 0. For the same compound, the “Plant response rating, Blackgrass” value [3, 14] was 0, the “Plant response rating, Blackgrass” value [3, 15] was 30 and the “Plant response rating, Blackgrass” value [3, 16] was 100. The “Plant response rating, Blackgrass” value [3, 17] was 100, the “Plant response rating: Oilseed Rape” value [4, 8] was 80 and the “Plant response rating: Oilseed Rape” value [4, 9] was 95. The “Plant response rating: Oilseed Rape” value [4, 10] was 100, the “Plant response rating: Oilseed Rape” value [4, 11] was 100 and the “Plant response rating, Oilseed Rape” value [4, 12] was 80. For the same compound, the “Plant response rating, Oilseed Rape” value [4, 13] was 0, the “Plant response rating, Oilseed Rape” value [4, 14] was 0 and the “Plant response rating, Oilseed Rape” value [4, 15] was 10. The “Plant response rating, Oilseed Rape” value [4, 16] was 30, the “Plant response rating, Oilseed Rape” value [4, 17] was 60 and the “Plant response rating, Soybean” value (soybean (Glycine max); [8]) was 20. For the same compound, the “Plant response rating, Soybean” value (soybean (Glycine max); [9]) was 40, the “Plant response rating, Soybean” value (soybean (Glycine max); [10]) was 70 and the “Plant response rating, Soybean” value (soybean (Glycine max); [18]) was 75. The “Plant response rating, Soybean” value (soybean (Glycine max); [19]) was 0, the “Plant response rating, Soybean” value (soybean (Glycine max); [20]) was 0 and the “Plant response rating, Soybean” value (soybean (Glycine max); [21]) was 10. For the same compound, the “Plant response rating, Soybean” value (soybean (Glycine max); [22]) was 40, the “Plant response rating: Galium” value [5, 8] was 50 and the “Plant response rating: Galium” value [5, 9] was 75. For the same compound, the “Plant response rating: Galium” value [5, 10] was 85, the “Plant response rating: Galium” value [5, 11] was 98 and the “Plant response rating, Galium” value [5, 12] was 40. The “Plant response rating, Galium” value [5, 14] was 0, the “Plant response rating, Galium” value [5, 15] was 100 and the “Plant response rating, Galium” value [5, 16] was 100. The “Plant response rating, Galium” value [5, 17] was 100, the “Plant response rating: Kochia” value (kochia (Kochia scoparia); [8]) was 98 and the “Plant response rating: Kochia” value (kochia (Kochia scoparia); [9]) was 100. For the same compound, the “Plant response rating: Kochia” value (kochia (Kochia scoparia); [10]) was 100, the “Plant response rating: Kochia” value (kochia (Kochia scoparia); [11]) was 100 and the “Plant response rating, Kochia” value (kochia (Kochia scoparia); [12]) was 98. For the same compound, the “Plant response rating, Kochia” value (kochia (Kochia scoparia); [13]) was 20, the “Plant response rating, Kochia” value (kochia (Kochia scoparia); [14]) was 25 and the “Plant response rating, Kochia” value (kochia (Kochia scoparia); [15]) was 75. For the same compound, the “Plant response rating, Kochia” value (kochia (Kochia scoparia); [16]) was 100, the “Plant response rating, Kochia” value (kochia (Kochia scoparia); [17]) was 100 and the “Plant response rating, Nightshade” value ([6]; 31 g ai/ha, scale of 0 to 100, 0 is no effect, 100 is complete control) was 85. For the same compound, the “Plant response rating, Nightshade” value ([6]; 62 g ai/ha, scale of 0 to 100, 0 is no effect, 100 is complete control) was 90, the “Plant response rating, Nightshade” value ([6]; 125 g ai/ha, scale 0 to 100, 0 no effect, 100 complete control) was 90 and the “Plant response rating, Nightshade” value ([6]; 250 g ai/ha, scale 0 to 100, 0 no effect, 100 complete control) was 95. For the same compound, the “Plant response rating, Foxtail, Giant” value [7, 8] was 0, the “Plant response rating, Foxtail, Giant” value [7, 9] was 20 and the “Plant response rating, Foxtail, Giant” value [7, 10] was 30. For the same compound, the “Plant response rating, Foxtail, Giant” value [7, 18] was 65, the “Plant response rating, Foxtail, Giant” value [7, 19] was 95 and the “Plant response rating, Foxtail, Giant” value [7, 20] was 98. The “Plant response rating, Foxtail, Giant” value [7, 21] was 98 and the “Plant response rating, Foxtail, Giant” value [7, 22] was 98.
